Reference: patent US20190100534A1, “Cephem Compounds with Latent Reactive Groups” (Gladius Pharmaceuticals, Inc., priority 2017, published 2019)

Experiments:
[1] = system: CF (Citrobacter freundii); experiment: MIC determination; format: cell-based; settings: CAMH broth, 20 μM Apo-Transferrin, 37° C., 18 hours; for MIC: Citrobacter freundii, read-out: Minimum Inhibitory Concentrations, CF
Method in brief: (§1)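 Broth microdilution in CAMH + 20 μM apo-transferrin; inoculum 0.5 McFarland, used within 30 min. Compound 64→0.125 μg/mL, twofold steps. 37 °C, 18 h. MIC = lowest clear-well concentration.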

EC (Escherichia coli) = experiment: MIC determination; format: cell-based; settings: 20 μM Apo-Transferrin, 37° C., 18 hours
Method in brief: as §1

[2] = system: ENC (Enterobacter cloacae); experiment: MIC determination; format: cell-based; settings: CAMH broth, 20 μM Apo-Transferrin, 37° C., 18 hours
Method in brief: as §1

[3] = system: KOXY (Klebsiella oxytoca); experiment: MIC determination; format: cell-based; settings: CAMH broth, 20 μM Apo-Transferrin, 37° C., 18 hours; for MIC: Klebsiella oxytoca, read-out: Minimum Inhibitory Concentrations, KOXY
Method in brief: as §1

[4] = system: KP (Klebsiella pneumoniae); experiment: MIC determination; format: cell-based; settings: 20 μM Apo-Transferrin, 37° C., 18 hours
Method in brief: as §1

PM (Proteus mirabilis) = experiment: MIC determination; format: cell-based; settings: CAMH broth, 20 μM Apo-Transferrin, 37° C., 18 hours; for MIC: Proteus mirabilis, read-out: Minimum Inhibitory Concentrations, PM
Method in brief: as §1

SM (Serratia marcescens) = experiment: MIC determination; format: cell-based; settings: CAMH broth, 20 μM Apo-Transferrin, 37° C., 18 hours; for MIC: Serratia marcescens, read-out: Minimum Inhibitory Concentrations, SM
Method in brief: as §1

[5] = system: A. baumannii (JMI OXA-58); experiment: MIC determination; format: cell-based, Acinetobacter baumannii; settings: class D carbapenemase producer, CAMH broth, 20 μM Apo-Transferrin, 37° C., 18 hours; for MIC: Acinetobacter baumannii, read-out: Minimum Inhibitory Concentrations, A. baumannii (JMI OXA-58)
Protocol: (§2) Sterile technique was used throughout these experiments. Suspensions of organisms were removed from storage (−80° C.) and partially thawed. Partially thawed organisms (1 μL) were inoculated into 3 mL sterile LB Broth in a sterile culture tube and capped, then cultured at 37° C. with shaking for 4-5 hours until the optical density at 600 nm (OD600) was greater than 0.1 on a single beam spectrophotometer.
(§3) The concentration of organisms was adjusted to 0.08-0.1 OD600 (0.5 McFarland units) by dilution with sterile cation-adjusted Meuller-Hinton (CAMH) broth. The suspensions were used within 30 minutes of preparation.
(§4) A stock solution was made of each test compound by measuring 6.4 mg of the compound on an analytical balance and dissolving it in DMSO (1 mL) to get a transparent solution. The solutions were stored at −20° C. and thawed prior to use.
(§5) Sterile CAMH broth (200 μL) containing 20 μM Apo-Transferrin was pipetted into the first row of 8 columns of a sterile, round-bottomed, transparent, 96-well microplate using an 8-channel pipette equipped with sterile tips. One hundred μL was pipetted into the wells of the remaining 11 rows.
(§6) With an 8-channel pipette equipped with sterile tips, 100 μL of the first row solution was transferred to the second row and mixed. The process was repeated for the second to third rows and continued through row 11. One hundred μL from row 11 was removed and discarded so that all 12 rows contained 100 μL. Row 12 contained no compound and rows 1-11 contained 64, 32, 16, 8, 4, 2, 1, 0.5, 0.25, 0.125, […] of a given compound.
(§7) Inoculant suspensions (0.5 μL) were added to the 12 wells of each column. The plates were then covered and incubated at 37° C. overnight for 18 hours.
(§8) For each organism the MIC was determined by identifying the transparent well with the lowest test compound concentration.

A. baumannii = experiment: MIC determination; format: cell-based, Acinetobacter baumannii; settings: for MIC: Acinetobacter baumannii, read-out: Minimum Inhibitory Concentrations, A. baumannii
Protocol: as §2, §3, §4, §5, §6, §7, §8

EC(KB1 CTX-M-14) = experiment: MIC determination; format: cell-based, Escherichia coli; settings: for MIC: Escherichia coli, 18 h, read-out: Minimum Inhibitory Concentrations, EC(KB1 CTX-M-14)
Method in brief: as §1

EC(KB2 CTX-M-14) = experiment: MIC determination; format: cell-based, Escherichia coli; settings: for MIC: Escherichia coli, 18 h, read-out: Minimum Inhibitory Concentrations, EC(KB2 CTX-M-14)
Method in brief: as §1

KP(ATCC SHV-18) = experiment: MIC determination; format: cell-based, Klebsiella pneumoniae; settings: CAMH broth, 20 μM Apo-Transferrin, 37° C., 18 hours
Method in brief: as §1

ENA (URMC-1) = experiment: MIC determination; format: cell-based, Enterobacter aerogenes; settings: CAMH broth, 20 μM Apo-Transferrin, 37° C., 18 hours; for MIC: Klebsiella aerogenes, read-out: Minimum Inhibitory Concentrations, ENA (URMC-1)
Protocol: as §2, §3, §4, §5, §6, §7, §8

ENA (URMC-2) = experiment: MIC determination; format: cell-based, Enterobacter aerogenes; settings: CAMH broth, 20 μM Apo-Transferrin, 37° C., 18 hours; for MIC: Klebsiella aerogenes, read-out: Minimum Inhibitory Concentrations, ENA (URMC-2)
Protocol: as §2, §3, §4, §5, §6, §7, §8

EA (URMC -3) = experiment: MIC determination; format: cell-based; settings: CAMH broth, 20 μM Apo-Transferrin, 37° C., 18 hours
Protocol: as §2, §3, §4, §5
(§9) To each well of the first row was pipetted 2.0 μL of the 6.4 mg/mL stock test compound stock solution to give 1:100 dilutions and a final concentration of 64 μg/mL and mixed.
as §6, §7, §8

CF (RR -1) = experiment: MIC determination; format: cell-based, Citrobacter freundii; settings: CAMH broth, 20 μM Apo-Transferrin, 37° C., 18 hours
Protocol: as §2, §3, §4, §5, §6, §7, §8

[6] = system: various Pseudomonas strains; experiment: MIC determination, summary in text; format: cell-based, Pseudomonas aeruginosa; settings: review of Tables 1-1 and 1-2
Protocol: as §2, §3, §4, §5, §6, §7, §8

[7] = system: both Acinetobacter baumannii strains tested; experiment: MIC determination, summary in text; format: cell-based; settings: review of Table 2
Protocol: as §2, §3, §4, §5
With an 8-channel pipette equipped with sterile tips, 100 μL of the first row solution was transferred to the second row and mixed. […]
as §8

various enteric bacteria = experiment: MIC determination, summary in text; format: cell-based; settings: review of Tables 3-1 to 3-6
Protocol: as §2, §3, §4, §5, §9, §6, §7, §8

[8] = first KP column of Table 3-1, CAMH broth
[9] = second KP column of Table 3-1, CAMH broth
[10] = A. baumannii, CAMH broth, 20 μM Apo-Transferrin, 37° C., 18 hours

Row | SMILES | MIC [1] | Minimum Inhibitory Concentrations, EC (EC (Escherichia coli); Table 3-1, CAMH broth) | Mimimum Inhibitory Concentrations, ENC [2] | MIC [3] | Minimum Inhibitory Concentrations, KP [4, 8] | Minimum Inhibitory Concentrations, KP [4, 9] | MIC (PM (Proteus mirabilis)) | MIC (SM (Serratia marcescens)) | MIC [5] | MIC (A. baumannii; [10]) | MIC (EC(KB1 CTX-M-14)) | MIC (EC(KB2 CTX-M-14)) | Minimum Inhibitory Concentrations, KP(ATCC SHV-18) (KP(ATCC SHV-18)) | MIC (ENA (URMC-1)) | MIC (ENA (URMC-2)) | Mimimum Inhibitory Concentrations, EA (URMC -3) (EA (URMC -3)) | Mimimum Inhibitory Concentrations, CF (RR -1) (CF (RR -1)) | MICs for various Pseudomonas strains, in words [6] | also measured
1 | CC(C)(O/N=C(\C(=O)N[C@@H]1C(=O)N2C(C(=O)O)=C(C=Cc3ccc(C[N+]4(C)CCc5cc(O)c(O)cc5C4)cc3)CS[C@H]12)c1csc(N)n1)C(=O)O (mixture of isomers) [Compound 407, 2-(4-((E/Z)-2-((6R,7R)-7-((Z)-2-(2-aminothiazol-4-yl)-2-(((2-carboxypropan-2-yl)oxy)imino)acetamido)-2-carboxy-8-oxo-5-thia-1-azabicyclo[4.2.0]oct-2-en-3 yl)vinyl)benzyl)-6,7-dihydroxy-2-methyl-1,2,3,4-tetrahydroisoquinolin-2-ium] | ≤ 0.06 µg/mL | 0.25 microgram/mL | 4 microgram/mL | 1 µg/mL | 0.25 microgram/mL | 0.25 microgram/mL | ≤ 0.06 µg/mL | 0.25 µg/mL | 16 µg/mL | 2 µg/mL | 2 µg/mL | 64 µg/mL | 2 microgram/mL | 0.5 µg/mL | 0.5 µg/mL | 2 microgram/mL | 0.13 microgram/mL | low microgram/mL MICs | MIC (EC (Escherichia coli); Escherichia coli, first EC column of Table 3-1, CAMH broth, read-out: Minimum Inhibitory Concentrations, EC): 0.25 µg/mL; MICs for both Acinetobacter baumannii strains tested, in words [7]: lower microgram/mL MICs
2 | CC(C)(O/N=C(\C(=O)N[C@@H]1C(=O)N2C(C(=O)O)=C(C=Cc3ccc(C[n+]4ccc(-c5ccc(O)c(O)c5)cc4)cc3)CS[C@H]12)c1csc(N)n1)C(=O)O (mixture of isomers) [Compound 412, 1-(4-((E/Z)-2-((6R,7R)-7-((Z)-2-(2-aminothiazol-4-yl)-2-(((2-carboxypropan-2-yl)oxy)imino)acetamido)-2-carboxy-8-oxo-5-thia-1-azabicyclo[4.2.0]oct-2-en-3-yl)vinyl)benzyl)-4-(3,4-dihydroxyphenyl)pyridin-1-ium] | ≤ 0.06 µg/mL | – | 4 microgram/mL | 0.5 µg/mL | 2 microgram/mL | 2 microgram/mL | ≤ 0.06 µg/mL | 0.5 µg/mL | > 64 µg/mL | 8 µg/mL | 0.5 µg/mL | 1 µg/mL | 1 microgram/mL | 0.25 µg/mL | 0.13 µg/mL | ≤0.06 microgram/mL | ≤0.06 microgram/mL | – | –
3 | CC(C)(O/N=C(\C(=O)N[C@@H]1C(=O)N2C(C(=O)O)=C(C=Cc3ccc(C[n+]4ccc5cc(O)c(O)cc5c4)cc3)CS[C@H]12)c1csc(N)n1)C(=O)O (mixture of isomers) [Compound 435, 2-(4-((E/Z)-2-((6R,7R)-7-((Z)-2-(2-aminothiazol-4-yl)-2-(((2-carboxypropan-2-yl)oxy)imino)acetamido)-2-carboxy-8-oxo-5-thia-1-azabicyclo[4.2.0]oct-2-en-3-yl)vinyl)benzyl)-6,7-dihydroxyisoquinolin-2-ium] | – | ≤0.06 microgram/mL | 16 microgram/mL | – | ≤0.06 microgram/mL | ≤0.06 microgram/mL | – | – | – | – | – | – | 0.25 microgram/mL | – | – | 0.5 microgram/mL | ≤0.06 microgram/mL | low microgram/mL MICs | Minimum Inhibitory Concentrations, CF [1]: ≤0.06 microgram/mL; Minimum Inhibitory Concentrations, EC (EC (Escherichia coli); first EC column of Table 3-1, CAMH broth): ≤0.06 microgram/mL; Minimum Inhibitory Concentrations, KOXY [3]: ≤0.06 microgram/mL; Minimum Inhibitory Concentrations, PM (PM (Proteus mirabilis)): ≤0.06 microgram/mL; Minimum Inhibitory Concentrations, SM (SM (Serratia marcescens)): 0.25 microgram/mL; Minimum Inhibitory Concentrations, A. baumannii (JMI OXA-58) [5]: >64 microgram/mL; Minimum Inhibitory Concentrations, A. baumannii (A. baumannii; [10]): 1 microgram/mL; MICs for an Acinetobacter baumannii strain, in words (A. baumannii; review of Table 2): low microgram/mL MICs; Minimum Inhibitory Concentrations, EC(KB1 CTX-M-14) (EC(KB1 CTX-M-14); EC(KB1 CTX-M-14), CAMH broth, 20 μM Apo-Transferrin, 37° C., 18 hours): ≤0.06 microgram/mL; Minimum Inhibitory Concentrations, EC(KB2 CTX-M-14) (EC(KB2 CTX-M-14); EC(KB2 CTX-M-14), CAMH broth, 20 μM Apo-Transferrin, 37° C., 18 hours): ≤0.06 microgram/mL; Minimum Inhibitory Concentrations, ENA (URMC-1) (ENA (URMC-1)): 0.13 microgram/mL; Minimum Inhibitory Concentrations, ENA (URMC-2) (ENA (URMC-2)): 0.13 microgram/mL; MICs for various enteric bacteria, in words (various enteric bacteria): low microgram/mL MICs
